# Test system: Diabrotica balteata
# Test: Diabrotica balteata (corn root worm) artificial diet test
# Type: in vivo
# Conditions: 120 h, 200 ppm (concentration in well 18 ppm), L2 larvae, 5 days, larval mortality and growth regulation
# Experimental: Diabrotica balteata (Corn Root Worm): A 24-well microtiter plate (MTP) with artificial diet was treated with test solutions at an application rate of 200 ppm (concentration in well 18 ppm) by pipetting. After drying, the MTP's were infested with larvae (L2) (6-10 per well). After an incubation period of 5 days, samples were checked for larval mortality, and growth regulation.
row,Compound,pest or weed control at 200 ppm [%]
1,Cn1nc(C(F)(F)C(F)(F)F)c(C(F)(F)F)c1NC(=O)c1cccc(NC(=O)c2ccccc2F)c1F [Compound B1],≥ 80
2,Cn1nc(C(F)(F)C(F)(F)F)c(C(F)(F)F)c1NC(=O)c1cccc(NC(=O)c2ccccc2Cl)c1F [Compound B3],≥ 80
3,Cn1nc(C(F)(F)C(F)(F)F)c(C(F)(F)F)c1NC(=O)c1cccc(NC(=O)c2ccc(C#N)cc2)c1F [Compound B4],≥ 80
4,Cn1nc(C(F)(F)C(F)(F)F)c(C(F)(F)F)c1NC(=O)c1cccc(NC(=O)c2ccc([N+](=O)[O-])cc2)c1F [Compound B5],≥ 80
5,Cc1ccc(C(=O)Nc2cccc(C(=O)Nc3c(C(F)(F)F)c(C(F)(F)C(F)(F)F)nn3C)c2F)cc1 [Compound B6],≥ 80
6,Cn1nc(C(F)(F)C(F)(F)F)c(C(F)(F)F)c1NC(=O)c1cccc(NC(=O)c2ccc(F)cc2)c1F [Compound B17],≥ 80
7,Cn1nc(C(F)(F)C(F)(F)F)c(C(F)(F)F)c1NC(=O)c1cccc(NC(=O)c2cccc(F)c2F)c1F [Compound B21],≥ 80
8,Cn1nc(C(F)(F)C(F)(F)F)c(C(F)(F)F)c1NC(=O)c1cccc(NC(=O)c2ccc(F)cc2F)c1F [Compound B22],≥ 80
9,Cc1ccccc1C(=O)Nc1cccc(C(=O)Nc2c(C(F)(F)F)c(C(F)(F)C(F)(F)F)nn2C)c1 [Compound D2],≥ 80
10,Cn1nc(C(F)(F)C(F)(F)F)c(C(F)(F)F)c1NC(=O)c1cccc(NC(=O)c2ccc(C#N)cc2)c1 [Compound D4],≥ 80
11,Cn1nc(C(F)(F)C(F)(F)F)c(C(F)(F)F)c1NC(=O)c1cccc(NC(=O)c2ccc([N+](=O)[O-])cc2)c1 [Compound D5],≥ 80
12,Cc1cc(F)ccc1C(=O)Nc1cccc(C(=O)Nc2c(C(F)(F)F)c(C(F)(F)C(F)(F)F)nn2C)c1 [Compound D7],≥ 80
13,Cn1nc(C(F)(F)C(F)(F)F)c(C(F)(F)F)c1NC(=O)c1cccc(NC(=O)c2ccc(OC(F)(F)F)cc2)c1 [Compound D11],≥ 80
14,Cn1nc(C(F)(F)C(F)(F)F)c(C(F)(F)F)c1NC(=O)c1cccc(NC(=O)c2ccc(F)c(C(F)(F)F)c2)c1 [Compound D12],≥ 80
15,Cn1nc(C(F)(F)C(F)(F)F)c(C(F)(F)F)c1NC(=O)c1cccc(NC(=O)c2ccccc2OC(F)(F)F)c1 [Compound D14],≥ 80
16,Cn1nc(C(F)(F)C(F)(F)F)c(C(F)(F)F)c1NC(=O)c1cccc(NC(=O)c2ccccc2C(F)(F)F)c1 [Compound D18],≥ 80
17,Cn1nc(C(F)(F)C(F)(F)F)c(C(F)(F)F)c1NC(=O)c1cccc(NC(=O)c2cc(C(F)(F)F)ccc2F)c1 [Compound D23],≥ 80

# Test system: Tetranychus urticae
# Test: Tetranychus urticae (two-spotted spider mite) bean leaf disc test
# Type: in vivo
# Conditions: foliar, 192 h, 200 ppm sprayed on bean leaf discs, mixed ages, 8 days, egg, larval and adult mortality
# Text: Tetranychus urticae (Two-Spotted Spider Mite): Bean leaf discs on agar in 24-well microtiter plates were sprayed with test solutions at an application rate of 200 ppm. After drying, the leaf discs are infested with mite populations of mixed ages. 8 days later, discs are checked for egg mortality, larval mortality, and adult mortality.
row,Compound,pest or weed control at 200 ppm [%]
1,Cn1nc(C(F)(F)C(F)(F)F)c(C(F)(F)F)c1NC(=O)c1cccc(NC(=O)c2ccc(C#N)cc2)c1F [Compound B4],≥ 80
2,Cn1nc(C(F)(F)C(F)(F)F)c(C(F)(F)F)c1NC(=O)c1cccc(NC(=O)c2ccc([N+](=O)[O-])cc2)c1F [Compound B5],≥ 80
3,Cn1nc(C(F)(F)C(F)(F)F)c(C(F)(F)F)c1NC(=O)c1cccc(NC(=O)c2ccc(F)cc2)c1F [Compound B17],≥ 80
4,Cn1nc(C(F)(F)C(F)(F)F)c(C(F)(F)F)c1NC(=O)c1cccc(NC(=O)c2ccc(C#N)cc2)c1 [Compound D4],≥ 80
5,Cc1cc(F)ccc1C(=O)Nc1cccc(C(=O)Nc2c(C(F)(F)F)c(C(F)(F)C(F)(F)F)nn2C)c1 [Compound D7],≥ 80

# Test system: Plutella xylostella
# Test: Plutella xylostella (diamond back moth) artificial diet test
# Type: in vivo
# Conditions: 144 h, 200 ppm (concentration in well 18 ppm), L2 larvae, 6 days, larval mortality and growth regulation
# Experimental: Plutella xylostella (Diamond Back Moth): A 24-well microtiter plate (MTP) with artificial diet was treated with test solutions at an application rate of 200 ppm (concentration in well 18 ppm) by pipetting. After drying, the MTP's were infested with L2 larvae (7-12 per well). After an incubation period of 6 days, samples were checked for larval mortality and growth regulation.
row,Compound,pest or weed control at 200 ppm [%]
1,Cn1nc(C(F)(F)C(F)(F)F)c(C(F)(F)F)c1NC(=O)c1cccc(NC(=O)c2ccccc2F)c1F [Compound B1],≥ 80
2,Cn1nc(C(F)(F)C(F)(F)F)c(C(F)(F)F)c1NC(=O)c1cccc(NC(=O)c2ccccc2Cl)c1F [Compound B3],≥ 80
3,Cn1nc(C(F)(F)C(F)(F)F)c(C(F)(F)F)c1NC(=O)c1cccc(NC(=O)c2ccc(C#N)cc2)c1F [Compound B4],≥ 80
4,Cn1nc(C(F)(F)C(F)(F)F)c(C(F)(F)F)c1NC(=O)c1cccc(NC(=O)c2ccc([N+](=O)[O-])cc2)c1F [Compound B5],≥ 80
5,Cc1ccc(C(=O)Nc2cccc(C(=O)Nc3c(C(F)(F)F)c(C(F)(F)C(F)(F)F)nn3C)c2F)cc1 [Compound B6],≥ 80
6,Cn1nc(C(F)(F)C(F)(F)F)c(C(F)(F)F)c1NC(=O)c1cccc(NC(=O)c2ccc(F)cc2)c1F [Compound B17],≥ 80
7,Cn1nc(C(F)(F)C(F)(F)F)c(C(F)(F)F)c1NC(=O)c1cccc(NC(=O)c2cccc(F)c2F)c1F [Compound B21],≥ 80
8,Cn1nc(C(F)(F)C(F)(F)F)c(C(F)(F)F)c1NC(=O)c1cccc(NC(=O)c2ccc(F)cc2F)c1F [Compound B22],≥ 80
9,Cc1ccccc1C(=O)Nc1cccc(C(=O)Nc2c(C(F)(F)F)c(C(F)(F)C(F)(F)F)nn2C)c1 [Compound D2],≥ 80
10,Cn1nc(C(F)(F)C(F)(F)F)c(C(F)(F)F)c1NC(=O)c1cccc(NC(=O)c2ccc([N+](=O)[O-])cc2)c1 [Compound D5],≥ 80
11,Cc1cc(F)ccc1C(=O)Nc1cccc(C(=O)Nc2c(C(F)(F)F)c(C(F)(F)C(F)(F)F)nn2C)c1 [Compound D7],≥ 80
12,Cn1nc(C(F)(F)C(F)(F)F)c(C(F)(F)F)c1NC(=O)c1cccc(NC(=O)c2ccc(OC(F)(F)F)cc2)c1 [Compound D11],≥ 80

# Test system: Heliothis virescens
# Test: Heliothis virescens (tobacco budworm) egg/artificial diet test
# Type: in vivo
# Conditions: 96 h, 200 ppm (concentration in well 18 ppm), eggs 0-24 h old on artificial diet, 4 days, egg mortality, larval mortality, growth regulation
# Experimental: Heliothis virescens (Tobacco Budworm): Eggs (0-24 h old) were placed in 24-well microtiter plate on artificial diet and treated with test solutions at an application rate of 200 ppm (concentration in well 18 ppm) by pipetting. After an incubation period of 4 days, samples were checked for egg mortality, larval mortality and growth regulation.
row,Compound,pest or weed control at 200 ppm [%]
1,Cn1nc(C(F)(F)C(F)(F)F)c(C(F)(F)F)c1NC(=O)c1cccc(NC(=O)c2ccccc2F)c1F [Compound B1],≥ 80
2,Cn1nc(C(F)(F)C(F)(F)F)c(C(F)(F)F)c1NC(=O)c1cccc(NC(=O)c2ccccc2Cl)c1F [Compound B3],≥ 80
3,Cn1nc(C(F)(F)C(F)(F)F)c(C(F)(F)F)c1NC(=O)c1cccc(NC(=O)c2ccc(C#N)cc2)c1F [Compound B4],≥ 80
4,Cn1nc(C(F)(F)C(F)(F)F)c(C(F)(F)F)c1NC(=O)c1cccc(NC(=O)c2ccc([N+](=O)[O-])cc2)c1F [Compound B5],≥ 80
5,Cc1ccc(C(=O)Nc2cccc(C(=O)Nc3c(C(F)(F)F)c(C(F)(F)C(F)(F)F)nn3C)c2F)cc1 [Compound B6],≥ 80
6,Cn1nc(C(F)(F)C(F)(F)F)c(C(F)(F)F)c1NC(=O)c1cccc(NC(=O)c2ccc(F)cc2)c1F [Compound B17],≥ 80
7,Cn1nc(C(F)(F)C(F)(F)F)c(C(F)(F)F)c1NC(=O)c1cccc(NC(=O)c2cccc(F)c2F)c1F [Compound B21],≥ 80
8,Cn1nc(C(F)(F)C(F)(F)F)c(C(F)(F)F)c1NC(=O)c1cccc(NC(=O)c2ccc(F)cc2F)c1F [Compound B22],≥ 80
9,Cc1ccccc1C(=O)Nc1cccc(C(=O)Nc2c(C(F)(F)F)c(C(F)(F)C(F)(F)F)nn2C)c1 [Compound D2],≥ 80
10,Cn1nc(C(F)(F)C(F)(F)F)c(C(F)(F)F)c1NC(=O)c1cccc(NC(=O)c2ccc([N+](=O)[O-])cc2)c1 [Compound D5],≥ 80
11,Cc1cc(F)ccc1C(=O)Nc1cccc(C(=O)Nc2c(C(F)(F)F)c(C(F)(F)C(F)(F)F)nn2C)c1 [Compound D7],≥ 80
12,Cn1nc(C(F)(F)C(F)(F)F)c(C(F)(F)F)c1NC(=O)c1cccc(NC(=O)c2ccc(OC(F)(F)F)cc2)c1 [Compound D11],≥ 80
13,Cn1nc(C(F)(F)C(F)(F)F)c(C(F)(F)F)c1NC(=O)c1cccc(NC(=O)c2ccc(F)c(C(F)(F)F)c2)c1 [Compound D12],≥ 80
14,Cn1nc(C(F)(F)C(F)(F)F)c(C(F)(F)F)c1NC(=O)c1cccc(NC(=O)c2ccccc2C(F)(F)F)c1 [Compound D18],≥ 80
15,Cn1nc(C(F)(F)C(F)(F)F)c(C(F)(F)F)c1NC(=O)c1cccc(NC(=O)c2cc(C(F)(F)F)ccc2F)c1 [Compound D23],≥ 80

# Test system: Spodoptera littoralis
# Test: Spodoptera littoralis (Egyptian cotton leafworm) cotton leaf disc test
# Type: in vivo
# Conditions: foliar, 72 h, 200 ppm sprayed on cotton leaf discs, 5 L1 larvae, mortality, feeding behaviour, growth regulation 3 DAT
# Text: Spodoptera littoralis (Egyptian Cotton Leafworm): Cotton leaf discs were placed on agar in a 24-well microtiter plate and sprayed with test solutions at an application rate of 200 ppm. After drying, the leaf discs were infested with 5 L1 larvae. The samples were checked for mortality, feeding behaviour, and growth regulation 3 days after treatment (DAT).
row,Compound,pest or weed control at 200 ppm [%]
1,Cn1nc(C(F)(F)C(F)(F)F)c(C(F)(F)F)c1NC(=O)c1cccc(NC(=O)c2ccccc2F)c1F [Compound B1],≥ 80
2,Cn1nc(C(F)(F)C(F)(F)F)c(C(F)(F)F)c1NC(=O)c1cccc(NC(=O)c2ccccc2Cl)c1F [Compound B3],≥ 80
3,Cn1nc(C(F)(F)C(F)(F)F)c(C(F)(F)F)c1NC(=O)c1cccc(NC(=O)c2ccc(C#N)cc2)c1F [Compound B4],≥ 80
4,Cn1nc(C(F)(F)C(F)(F)F)c(C(F)(F)F)c1NC(=O)c1cccc(NC(=O)c2ccc([N+](=O)[O-])cc2)c1F [Compound B5],≥ 80
5,Cc1ccc(C(=O)Nc2cccc(C(=O)Nc3c(C(F)(F)F)c(C(F)(F)C(F)(F)F)nn3C)c2F)cc1 [Compound B6],≥ 80
6,Cn1nc(C(F)(F)C(F)(F)F)c(C(F)(F)F)c1NC(=O)c1cccc(NC(=O)c2ccc(F)cc2)c1F [Compound B17],≥ 80
7,Cn1nc(C(F)(F)C(F)(F)F)c(C(F)(F)F)c1NC(=O)c1cccc(NC(=O)c2cccc(F)c2F)c1F [Compound B21],≥ 80
8,Cn1nc(C(F)(F)C(F)(F)F)c(C(F)(F)F)c1NC(=O)c1cccc(NC(=O)c2ccc(F)cc2F)c1F [Compound B22],≥ 80
9,Cc1ccccc1C(=O)Nc1cccc(C(=O)Nc2c(C(F)(F)F)c(C(F)(F)C(F)(F)F)nn2C)c1 [Compound D2],≥ 80
10,Cn1nc(C(F)(F)C(F)(F)F)c(C(F)(F)F)c1NC(=O)c1cccc(NC(=O)c2ccc([N+](=O)[O-])cc2)c1 [Compound D5],≥ 80
11,Cc1cc(F)ccc1C(=O)Nc1cccc(C(=O)Nc2c(C(F)(F)F)c(C(F)(F)C(F)(F)F)nn2C)c1 [Compound D7],≥ 80
12,Cn1nc(C(F)(F)C(F)(F)F)c(C(F)(F)F)c1NC(=O)c1cccc(NC(=O)c2ccc(OC(F)(F)F)cc2)c1 [Compound D11],≥ 80
13,Cn1nc(C(F)(F)C(F)(F)F)c(C(F)(F)F)c1NC(=O)c1cccc(NC(=O)c2ccccc2C(F)(F)F)c1 [Compound D18],≥ 80
14,Cn1nc(C(F)(F)C(F)(F)F)c(C(F)(F)F)c1NC(=O)c1cccc(NC(=O)c2cc(C(F)(F)F)ccc2F)c1 [Compound D23],≥ 80

# — US20130269064A1, “INSECTICIDAL COMPOUNDS” (SYNGENTA PARTICIPATIONS AG, priority 2010, published 2013)
